Test results: patent US5733913A, “6-Aryl pyrido[2,3-d] pyrimidines and naphthyridines for inhibiting protein tyrosine kinase mediated cellular proliferation” (priority 1995, dated 1998)
Read-outs that look alike come from different tables or passages of the source.

Assays:
Assay type in all cases: biochemical
C-src kinase = target: T1, C-src kinase (Homo sapiens, UniProt P12931); assay: C-src kinase assay; conditions: for inhibition at 50 µM: read-out: Inhibition of Protein Tyrosine Kinases, C-src, % Inhibition
T1 construct: made in house; host or cells: baculovirus-infected insect cells
Description: V-src and C-src Kinase Assays
V-src or C-src kinase is purified from baculovirus infected insect cell lysates using an antipeptide monoclonal antibody directed against the N-terminal 2-17 amino acids. The antibody, covalently linked to 0.65-μm latex beads, is added to a suspension of insect cell lysis buffer comprised of 150 mM NaCl, 50 mM Tris pH 7.5, 1 mM DTT, 1% NP-40, 2 mM EGTA, 1 mM sodium vanadate, 1 mM PMSF, 1 μg/mL each of leupeptin, pepstatin, and aprotinin. […] At the end of the lysate incubation, the beads are rinsed 3 times in lysis buffer, resuspended in lysis buffer containing 10% glycerol, and frozen. These latex beads are thawed, rinsed three times in assay buffer which is comprised of 40 mM tris pH 7.5, 5 mM MgCl2, and suspended in the same buffer. In a Millipore 96-well plate with a 0.65 μm polyvinylidine membrane bottom are added the reaction components: 10-μL v-src or c-src beads, 10 μL of 2.5 mg/mL poly GluTyr substrate, 5 μM ATP containing 0.2 μCi labeled ^32 P-ATP, 5μL DMSO containing inhibitors or as a solvent control, and buffer to make the final volume 125 μL. The reaction is started at room temperature by addition of the ATP and quenched 10 minutes later by the addition of 125 μL of 30% TCA, 0.1M sodium pyrophosphate for 5 minutes on ice. The plate is then filtered and the wells washed with two 250-μL aliquots of 15% TCA, 0.1M pyrophosphate. The filters are punched, counted in a liquid scintillation counter, and the data examined for inhibitory activity in comparison to a known inhibitor such as erbstatin. The method is described more fully in J. Med. Chem., 37:598-609 (1994).

[1] = target: T2, human FGF-1 (flg) receptor tyrosine kinase (Homo sapiens, UniProt P11362); assay: FGF receptor tyrosine kinase assay; conditions: for IC50: read-out: Inhibition of Protein Tyrosine Kinases, FGF, IC50; for inhibition at 50 µM: read-out: Inhibition of Protein Tyrosine Kinases, FGF, % Inhibition
T2 construct: a fragment of DNA that codes for the intracellular tyrosine kinase domain; made in house; host or cells: Sf9 insect cells (baculovirus), cell lysate
Excerpt: (§1) PDGF and FGF Receptor Tyrosine Kinase Assays
(§2) Full length cDNAs for the mouse PDGF-β and human FGF-1 (flg) receptor tyrosine kinases were obtained from J. Escobedo and prepared as described in J. Biol. Chem., 262:1482-1487 (1991), and PCR primers were designed to amplify a fragment of DNA that codes for the intracellular tyrosine kinase domain. The fragment was melded into a baculovirus vector, cotransfected with AcMNPV DNA, and the recombinant virus isolated. SF9 insect cells were infected with the virus to overexpress the protein, and the cell lysate was used for the assay. […] Briefly, to each well was added 82.5 μL of incubation buffer containing 25 mM Hepes (pH 7.0), 150 mM NaCl, 0.1% Triton X-100, 0.2 mM PMSF, 0.2 mM Na3 VO4, 10 mM MnCl2, and 750 μg/mL of Poly (4:1) glutamate-tyrosine followed by 2.5 μL of inhibitor and 5 μL of enzyme lysate (7.5 μg/μL FGF-TK or 6.0 μg/μL PDGF-TK) to initiate the reaction. Following a 10 minute incubation at 25° C., 10 μL of γ^32 P-ATP (0.4 μCi plus 50 μM ATP) was added to each well and samples were incubated for an additional 10 minutes at 25° C. The reaction was terminated by the addition of 100 μL of 30% trichloroacetic acid (TCA) containing 20 mM sodium pyrophosphate and precipitation of material onto glass fiber filter mats (Wallac). […] Nonspecific activity was defined as radioactivity retained on the filters following incubation of samples with buffer alone (no enzyme). Specific enzymatic activity was defined as total activity (enzyme plus buffer) minus nonspecific activity.

[2] = target: T3, mouse PDGF-β receptor tyrosine kinase (Mus musculus, UniProt P05622); assay: PDGF receptor tyrosine kinase assay; conditions: for IC50: read-out: Inhibition of Protein Tyrosine Kinases, PDGF, IC50; for inhibition at 50 µM: read-out: Inhibition of Protein Tyrosine Kinases, PDGF, % Inhibition
T3 construct: a fragment of DNA that codes for the intracellular tyrosine kinase domain; made in house; host or cells: Sf9 insect cells (baculovirus), cell lysate
Excerpt: as §1, §2

[3] = read-out: Inhibition of Protein Tyrosine Kinases, C-src, IC50

T2 sequence (P11362 478-767 limits assumed): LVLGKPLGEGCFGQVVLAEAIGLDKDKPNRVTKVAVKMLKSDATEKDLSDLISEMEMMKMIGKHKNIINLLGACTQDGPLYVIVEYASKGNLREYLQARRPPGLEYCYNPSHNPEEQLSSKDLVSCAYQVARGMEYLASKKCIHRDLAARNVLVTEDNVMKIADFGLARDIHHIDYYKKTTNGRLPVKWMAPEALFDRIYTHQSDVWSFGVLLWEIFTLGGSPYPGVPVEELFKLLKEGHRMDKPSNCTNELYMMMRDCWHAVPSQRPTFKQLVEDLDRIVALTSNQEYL
T3 sequence (P05622 599-961 limits assumed): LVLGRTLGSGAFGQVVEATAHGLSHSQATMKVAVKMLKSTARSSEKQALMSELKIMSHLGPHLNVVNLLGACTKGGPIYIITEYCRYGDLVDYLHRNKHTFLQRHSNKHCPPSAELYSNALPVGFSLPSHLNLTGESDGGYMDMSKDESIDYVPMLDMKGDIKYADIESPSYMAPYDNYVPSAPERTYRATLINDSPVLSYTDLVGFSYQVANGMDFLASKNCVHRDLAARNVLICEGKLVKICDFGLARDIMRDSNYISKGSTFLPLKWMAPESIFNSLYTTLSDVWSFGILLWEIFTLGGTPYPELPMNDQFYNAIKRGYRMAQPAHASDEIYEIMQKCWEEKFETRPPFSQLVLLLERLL
T1 sequence (P12931 whole entry): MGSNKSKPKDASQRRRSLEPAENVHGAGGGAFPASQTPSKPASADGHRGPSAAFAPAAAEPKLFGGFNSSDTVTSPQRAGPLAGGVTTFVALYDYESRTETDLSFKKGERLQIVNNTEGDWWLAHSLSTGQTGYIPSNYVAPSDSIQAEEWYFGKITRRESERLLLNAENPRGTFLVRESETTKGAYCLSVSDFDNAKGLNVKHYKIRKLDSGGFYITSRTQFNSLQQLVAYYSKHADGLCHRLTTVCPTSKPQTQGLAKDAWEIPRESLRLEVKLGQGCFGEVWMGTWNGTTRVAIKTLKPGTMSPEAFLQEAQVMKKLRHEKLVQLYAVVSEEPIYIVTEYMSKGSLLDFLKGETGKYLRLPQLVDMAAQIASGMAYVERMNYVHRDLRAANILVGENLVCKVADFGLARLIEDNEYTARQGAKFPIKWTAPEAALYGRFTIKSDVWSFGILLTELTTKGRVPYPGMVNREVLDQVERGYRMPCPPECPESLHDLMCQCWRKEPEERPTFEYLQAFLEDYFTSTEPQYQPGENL

| IC50 (C-src kinase; [3]) | IC50 [1] | IC50 [2] | SMILES | also measured |
| --- | --- | --- | --- | --- |
| 11 nM | 91 nM | 405 nM | COc1ccccc1NC(=O)Nc1nc2nc(NCCCN3CCN(C)CC3)ncc2cc1-c1c(Cl)cccc1Cl [Example 43, 1-{6-(2,6-Dichlorophenyl)-2-[3-(4-methyl-piperazin-1-yl)-propylamino]-pyrido[2,3-d]pyrimidin-7-yl}-3-(2-methoxy-phenyl)-urea] | – |
| 86 nM | – | – | COc1ccc(NC(=O)Nc2nc3nc(NCCCN4CCN(C)CC4)ncc3cc2-c2c(Cl)cccc2Cl)cc1 [Example 41, 1-{6-(2,6-Dichlorophenyl)-2-[3-(4-methyl-piperazin-1-yl)-propylamino]-pyrido[2,3-d]pyrimidin-7-yl}-3-(4-methoxy-phenyl)-urea] | – |
| – | – | – | Nc1ncc2cc(-c3ccncc3)c(N)nc2n1 [Example 109, 6-Pyridin-4-yl-pyrido[2,3-d]pyrimidine-2,7-diamine] | inhibition at 50 µM [1]: 10.3%; inhibition at 50 µM [2]: 23.6% |
| 40 nM | 198 nM | 1850 nM | CN1CCN(CCCNc2ncc3cc(-c4c(Cl)cccc4Cl)c(NC(=O)Nc4ccc(Cl)cc4)nc3n2)CC1 [Example 45, 1-(4-Chloro-phenyl)-3-{6-(2,6-dichlorophenyl)-2-[3-(4-methyl-piperazin-1-yl)-propylamino]-pyrido[2,3-d]pyrimidin-7-yl}-urea] | – |
| 4460 nM | 129 nM | 7630 nM | Nc1ncc2cc(-c3c(Cl)ccc(Cl)c3Cl)c(N)nc2n1 [Example 85, 6-(2,3,6-Trichloro-phenyl)-pyrido[2,3-d]pyrimidine-2,7-diamine] | – |
| – | – | – | Cc1cc(C)c(C)c(-c2cc3cnc(N)nc3nc2NC(=O)NC(C)(C)C)c1C [Example 99, 1-[2-Amino-6-(2,3,5,6-tetramethyl-phenyl)-pyrido[2,3-d]pyrimidin-7-yl]-3-tert-butyl-urea] | inhibition at 50 µM (C-src kinase): 17.1% |
| – | 57.4 nM | 697 nM | C=CCNC(=O)Nc1nc2nc(NCCCN3CCN(C)CC3)ncc2cc1-c1c(Cl)cccc1Cl [Example 40, 1-Allyl-3-{6-(2,6-dichlorophenyl)-2-[3-(4-methyl-piperazin-1-yl)-propylamino]-pyrido[2,3-d]pyrimidin-7-yl}-urea] | – |
| – | 5320 nM | 36700 nM | Nc1ncc2cc(-c3c(Cl)cccc3Br)c(N)nc2n1 [Example 104, 6-(2-Bromo-6-chloro-phenyl)-pyrido[2,3-d]pyrimidine-2,7-diamine] | – |
| – | 7710 nM | 62400 nM | CCN(CC)C(=O)Nc1nc2nc(NCCCN3CCN(C)CC3)ncc2cc1-c1c(Cl)cccc1Cl [Example 119, 3-{6-(2,6-Dichlorophenyl)-2-[3-(4-methyl-piperazin-1-yl)-propylamino]-pyrido[2,3-d]pyrimidin-7-yl}-1,1-diethyl-urea] | – |
| – | 3840 nM | 27400 nM | Cc1cc(C)c(-c2cc3cnc(N)nc3nc2N)c(C)c1 [Example 96, 6-(2,4,6-Trimethyl-phenyl)-pyrido[2,3-d]pyrimidine-2,7-diamine] | – |
| – | 171 nM | 1460 nM | CCN(CC)CCCCNc1ncc2cc(-c3c(Cl)cccc3Cl)c(NC(=S)NCCCN3CCOCC3)nc2n1 [Example 122, 1-[6-(2,6-Dichlorophenyl)-2-(4-diethylamino-butylamino)-pyrido[2,3-d]pyrimidin-7-yl]-3-(3-morpholin-4-yl-propyl)-thiourea] | – |
| – | 126 nM | 1920 nM | CN1CCN(CCCNc2ncc3cc(-c4c(Cl)cccc4Cl)c(NC(=S)NC(C)(C)C)nc3n2)CC1 [Example 118, 1-tert-Butyl-3-{6-(2,6-dichlorophenyl)-2-[3-(4-methyl-piperazin-1-yl)-propylamino]-pyrido[2,3-d]pyrimidin-7-yl}-thiourea] | – |
| 21 nM | – | – | CN1CCN(CCCNc2ncc3cc(-c4c(Cl)cccc4Cl)c(NC(=O)NCc4ccccc4)nc3n2)CC1 [Example 39, 1-Benzyl-3-{6-(2,6-dichlorophenyl)-2-[3-(4-methyl-piperazin-1-yl)-propylamino]-pyrido[2,3-d]pyrimidin-7-yl}-urea] | – |
| – | 17600 nM | – | Cc1cc(C)cc(-c2cc3cnc(N)nc3nc2N)c1 [Example 94, 6-(3,5-Dimethyl-phenyl)-pyrido[2,3-d]pyrimidine-2,7-diamine] | inhibition at 50 µM [2]: 11.5% |
| – | 142 nM | – | Cc1cc(C)c(C)c(-c2cc3cnc(NCCCN4CCN(C)CC4)nc3nc2NC(=O)NC(C)(C)C)c1C [Example 121, 1-tert-Butyl-3-{2-[3-(4-methyl-piperazin-1-yl)-propylamino]-6-(2,3,5,6-tetramethyl-phenyl)-pyrido-[2,3-d]pyrimidin-7-yl}-urea] | inhibition at 50 µM [2]: 21.8% |
| 32 nM | – | 624 nM | COc1cccc(NC(=O)Nc2nc3nc(NCCCN4CCN(C)CC4)ncc3cc2-c2c(Cl)cccc2Cl)c1 [Example 42, 1-{6-(2,6-Dichlorophenyl)-2-[3-(4-methyl-piperazin-1-yl)-propylamino]-pyrido[2,3-d]pyrimidin-7-yl}-3-(3-methoxy-phenyl)-urea] | – |
| – | 10200 nM | – | CN(C)C=Nc1ncc2cc(-c3c(Cl)cccc3Cl)c(N=CN(C)C)nc2n1 [Example 80, N'-[6-(2,6-Dichlorophenyl)-7-[(dimethylamino)methylene-amino]-pyrido[2,3-d]pyrimidin-2-yl]-N,N-dimethylformamidine] | inhibition at 50 µM [2]: 22.9% |
| 5000 nM | – | 415 nM | CC1CCCCN1CCCNc1ncc2cc(-c3c(Cl)cccc3Cl)c(NC(=O)NC(C)(C)C)nc2n1 (stereo not drawn) [Example 32, 1-tert-Butyl-3-{6-(2,6-dichlorophenyl)-2-[3-(2-methyl-piperidin-1-yl)-propylamino]-pyrido[2,3-d]pyrimidin-7-yl}-urea] | – |
| – | – | 2080 nM | CN1CCN(CCCNc2ncc3cc(-c4c(Cl)cccc4Cl)c(NC4=NCCCO4)nc3n2)CC1 [Example 35, 6-(2,6-Dichlorophenyl)-N^7-(5,6-dihydro-4H-[1,3]oxazin-2-yl)-N^2-[3-(4-methyl-piperazin-1-yl)-propyl]-pyrido[2,3-d]pyrimidine-2,7-diamine] | inhibition at 50 µM [1]: 97.9% |
| 11 nM | – | 349 nM | CN1CCN(CCCCNc2ncc3cc(-c4c(Cl)cccc4Cl)c(NC(=O)NC(C)(C)C)nc3n2)CC1 [Example 34, 1-tert-Butyl-3-{6-(2,6-dichlorophenyl)-2-[4-(4-methyl-piperazin-1-yl)-butylamino]-pyrido[2,3-d]pyrimidin-7-yl}-urea] | – |
| – | – | – | CN1CCN(CCCNc2ncc3cc(-c4c(Cl)cccc4Cl)c(NC(=O)NC4CCCCC4)nc3n2)CC1 [Example 37, 1-Cyclohexyl-3-{6-(2,6-dichlorophenyl)-2-[3-(4-methyl-piperazin-1-yl)-propylamino]-pyrido[2,3-d]pyrimidin-7-yl}-urea] | inhibition at 50 µM (C-src kinase): 106% |
| – | 305 nM | 2600 nM | CN1CCN(CCCNc2ncc3cc(-c4c(Cl)cccc4Cl)c(NC(=O)Nc4cccc5ccccc45)nc3n2)CC1 [Example 50, 1-{6-(2,6-Dichlorophenyl)-2-[3-(4-methyl-piperazin-1-yl)-propylamino]-pyrido[2,3-d]pyrimidin-7-yl}-3-naphthalen-1-yl-urea] | – |

| SMILES | IC50 (C-src kinase; [3]) | IC50 [1] | IC50 [2] | also measured |
| --- | --- | --- | --- | --- |
| Nc1ncc2cc(-c3c(Br)cccc3Br)c(N)nc2n1 [Example 60, 6-(2,6-Dibromo-phenyl)-pyrido[2,3-d]pyrimidine-2,7-diamine] | – | 13000 nM | – | IC50 (C-src kinase): 1570 nM |
